Reference: ChEMBL document CHEMBL3044742, “Pharmacophagous feeding stimulant activity of neo-clerodane diterpenoids for the turnip sawfly, Athalia rosae ruficornis” (2004)

How the values were obtained:
Assay type in all cases: functional
Athalia rosae ruficornis [1] = experiment: Pharmacophagous feeding stimulant activity in Athalia rosae ruficornis assessed as insect fed on paper for more than 10 seconds at 10^-5 g/filter paper
Athalia rosae ruficornis [2] = experiment: Pharmacophagous feeding stimulant activity in Athalia rosae ruficornis assessed as insect fed on paper for more than 10 seconds at 10^-6 g/filter paper
Athalia rosae ruficornis [3] = experiment: Pharmacophagous feeding stimulant activity in Athalia rosae ruficornis assessed as insect fed on paper for more than 10 seconds at 10^-7 g/filter paper
Athalia rosae ruficornis [4] = experiment: Pharmacophagous feeding stimulant activity in Athalia rosae ruficornis assessed as insect fed on paper for more than 10 seconds at 10^-8 g/filter paper

Structure (SMILES) | Activity (Athalia rosae ruficornis [1]) [%] | Activity (Athalia rosae ruficornis [2]) [%] | Activity (Athalia rosae ruficornis [3]) [%] | Activity (Athalia rosae ruficornis [4]) [%]
CC(=O)OC[C@@]12[C@@H](OC(C)=O)C[C@@H](C)[C@](C)([C@@H]3C[C@H]4C=CO[C@H]4O3)[C@H]1CC[C@H](OC(C)=O)[C@]21CO1 [3-EPICARYOPTIN] | 80 | 80 | 80 | 80
CC(=O)OC[C@@]12[C@@H](OC(C)=O)C[C@@H](C)[C@](C)([C@@H]3C[C@H]4C=CO[C@H]4O3)[C@H]1C[C@@H](O)[C@H](OC(=O)C(C)C)[C@]21CO1 [AJUGACHIN A] | 80 | 80 | 80 | 80
C/C=C(\C)C(=O)O[C@@H]1CC[C@]2(CO2)[C@]2(COC(C)=O)[C@@H](OC(C)=O)C[C@@H](C)[C@](C)(C[C@H](O)C3=CC(=O)OC3)[C@@H]12 [AJUGAMARIN A1] | <10 | <10 | <10 | <10
C/C=C(\C)C(=O)O[C@@H]1CC[C@]2(CO2)[C@]2(COC(C)=O)[C@@H](OC(C)=O)C[C@@H](C)[C@](C)(C[C@H](OC(=O)[C@@H](C)CC)C3=CC(=O)OC3)[C@@H]12 [AJUGAMARIN G1] | <10 | <10 | <10 | <10
C/C=C(\C)C(=O)O[C@@H](C[C@@]1(C)[C@H](C)C[C@H](OC(C)=O)[C@]2(COC(C)=O)[C@@H]1[C@H](OC(=O)[C@@H](C)CC)CC[C@]21CO1)C1=CC(=O)OC1 [AJUGAMARIN H1] | <10 | <10 | <10 | <10
CC[C@H](C)C(=O)O[C@H]1CC(=O)[C@@H]2[C@@](C)(CCC3=CC(=O)OC3)[C@H](C)C[C@H](OC(C)=O)[C@@]2(COC(C)=O)[C@@]12CO2 [AJUGAREPTANSONE A] | 10 | <10 | <10 | <10
C/C=C(\C)C(=O)O[C@@H](C[C@@]1(C)[C@H](C)C[C@H](OC(C)=O)[C@]2(COC(C)=O)[C@@H]1[C@H](OC(=O)/C(C)=C/C)CC[C@]21CO1)C1=CC(=O)OC1 [AJUGATAKASIN A] | <10 | <10 | <10 | <10
CC[C@H](C)C(=O)O[C@@H](C[C@@]1(C)[C@H](C)C[C@H](OC(C)=O)[C@]2(COC(C)=O)[C@@H]1[C@H](OC(=O)[C@@H](C)CC)CC[C@]21CO1)C1=CC(=O)OC1 [AJUGATAKASIN B] | <10 | <10 | <10 | <10
CC[C@H](C)C(=O)O[C@@H](C[C@@]1(C)[C@H](C)C[C@H](OC(C)=O)[C@]2(COC(C)=O)[C@@H]1CC[C@H](O)[C@]21CO1)C1=CC(=O)OC1 [AJUGATANSIN B1] | <10 | <10 | <10 | <10
CC(=O)OC[C@@]12[C@@H](OC(C)=O)C[C@@H](C)[C@](C)([C@@H]3C[C@H]4C=CO[C@H]4O3)[C@H]1C[C@@H](O)[C@H](O)[C@]21CO1 [ATHALIADIOL] | 80 | 80 | 40 | 40
CC[C@H](C)C(=O)O[C@@H](C[C@@]1(C)[C@H](C)C[C@H](OC(C)=O)[C@]2(COC(C)=O)[C@@H]1C(=O)C[C@H](O)[C@]21CO1)C1=CC(=O)OC1 [Ajugareptone] | <10 | <10 | <10 | <10
CC[C@@](C)(OC(C)=O)C(=O)O[C@H]1[C@H](O)C[C@@H]2[C@@](C)([C@@H]3C[C@H]4C=CO[C@H]4O3)C(C)=C[C@H](OC(C)=O)[C@@]2(COC(C)=O)[C@@]12CO2 [CLERODENDRIN A] | 40 | 40 | <10 | <10
CC[C@@](C)(OC(C)=O)C(=O)O[C@H]1[C@H](O)C[C@@H]2[C@@](C)([C@@H]3C[C@H]4C=CO[C@H]4O3)[C@H](C)C[C@H](OC(C)=O)[C@@]2(COC(C)=O)[C@@]12CO2 [CLERODENDRIN B] | 80 | 80 | 80 | 40
CC[C@H](C)C(=O)O[C@H]1[C@H](O)C[C@@H]2[C@@](C)([C@@H]3C[C@H]4C=CO[C@H]4O3)[C@H](C)C[C@H](OC(C)=O)[C@@]2(COC(C)=O)[C@@]12CO2 [CLERODENDRIN D] | 80 | 80 | 80 | 80
CC(=O)OC[C@@]12[C@@H](OC(C)=O)C=C(C)[C@](C)([C@@H]3C[C@H]4C=CO[C@H]4O3)[C@H]1C[C@@H](O)[C@H](OC(=O)C(C)(C)OC(C)=O)[C@]21CO1 [CLERODENDRIN E] | 10 | 10 | <10 | <10
CC(=O)OC[C@@]12[C@@H](OC(C)=O)C=C(C)[C@](C)([C@@H]3C[C@H]4C=CO[C@H]4O3)[C@H]1C[C@@H](O)[C@H](OC(=O)[C@](C)(OC(C)=O)[C@@H](C)OC(C)=O)[C@]21CO1 [CLERODENDRIN F] | 10 | 10 | <10 | <10
CCC(C)C(=O)O[C@H]1[C@H](O)C[C@@H]2[C@@](C)([C@@H]3C[C@H]4C=CO[C@H]4O3)C(C)=C[C@H](OC(C)=O)[C@@]2(COC(C)=O)[C@@]12CO2 (some centres undefined) [CLERODENDRIN G] | 40 | 40 | <10 | <10
CC(=O)OC[C@@]12[C@@H](OC(C)=O)C[C@@H](C)[C@](C)([C@@H]3C[C@H]4C=CO[C@H]4O3)[C@H]1C[C@@H](O)[C@H](OC(=O)[C@](C)(OC(C)=O)[C@@H](C)OC(C)=O)[C@]21CO1 [CLERODENDRIN H] | 80 | 80 | 80 | 80
CC(=O)OC[C@@]12[C@@H](OC(C)=O)C=C(C)[C@](C)([C@@H]3C[C@H]4C=CO[C@H]4O3)[C@H]1C[C@@H](O)[C@H](OC(=O)[C@](C)(OC(C)=O)[C@H](C)OC(C)=O)[C@]21CO1 [CLERODENDRIN I] | 10 | 10 | <10 | <10
CC(=O)OC[C@@]12[C@@H](OC(C)=O)C[C@@H](C)[C@](C)([C@@H]3C[C@H]4C=CO[C@H]4O3)[C@H]1CCC[C@]21CO1 [CLERODIN] | 80 | 80 | 80 | 40
CCC(C)C(=O)O[C@@H]1CC[C@]2(CO2)[C@]2(COC(C)=O)[C@@H](OC(C)=O)C[C@@H](C)[C@](C)(C[C@H](O)C3=CC(=O)OC3)[C@@H]12 (some centres undefined) [DIHYDROAJUGAMARIN] | <10 | <10 | <10 | <10
